Reference: PMC6218659, “Structures of DPAGT1 Explain Glycosylation Disease Mechanisms and Advance TB Antibiotic Design” (Cell, 2018)

Key:
[1] = biological target: T1, DPAGT1 Arg301Cys (Homo sapiens, UniProt Q9H3H5, R301C); test: Thermostability assay (label free differential scanning fluorimetry); format: binding, H. sapiens; settings: 50 μM compound
T1 construct: combined with the LIC-adapted primers to amplify the complete DPAGT1 gene, including the desired mutations; 6xHis purification tag with TEV site (N, cleaved yes); made in house; host or cells: Spodoptera frugiperda Sf9 insect cells (baculovirus)
T1 sequence (Q9H3H5 1-408 R301C): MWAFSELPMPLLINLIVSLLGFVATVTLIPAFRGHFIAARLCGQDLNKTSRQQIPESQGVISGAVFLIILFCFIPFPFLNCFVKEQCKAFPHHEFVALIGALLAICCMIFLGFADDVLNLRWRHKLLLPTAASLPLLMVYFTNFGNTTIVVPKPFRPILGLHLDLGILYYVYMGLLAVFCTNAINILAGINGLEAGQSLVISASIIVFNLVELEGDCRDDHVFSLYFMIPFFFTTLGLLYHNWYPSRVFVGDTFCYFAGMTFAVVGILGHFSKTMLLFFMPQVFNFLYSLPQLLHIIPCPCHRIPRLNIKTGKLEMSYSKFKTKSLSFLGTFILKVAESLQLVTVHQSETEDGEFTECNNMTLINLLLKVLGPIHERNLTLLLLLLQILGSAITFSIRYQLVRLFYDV
Protocol: (§1) Samples with a volume of 40 μl were prepared containing 0.5 mg/ml protein and 50 μM compound or 5% DMSO in GFB. A glass capillary was dipped into each sample, with the capillary held horizontally to ensure that the capillary was full of the sample. The capillaries were placed on the capillary holder on the Nanotemper Prometheus. Technical triplicates of each sample were prepared, and each experiment was conducted with biological triplicates of each protein. PR.ThermControl software was used to run the experiment and analyse the data. A melting curve from 20 °C – 95 °C at 5 °C/min was performed. The minimum of the first derivative of the 330/350nm ratio was used to determine the Tm1/2.

[2] = biological target: T2, DPAGT1 Arg301His (Homo sapiens, UniProt Q9H3H5, R301H); test: as above; format: binding, H. sapiens; settings: 50 μM compound
T2 construct: combined with the LIC-adapted primers to amplify the complete DPAGT1 gene, including the desired mutations; 6xHis purification tag with TEV site (N, cleaved yes); made in house; host or cells: Spodoptera frugiperda Sf9 insect cells (baculovirus)
T2 sequence (Q9H3H5 1-408 R301H): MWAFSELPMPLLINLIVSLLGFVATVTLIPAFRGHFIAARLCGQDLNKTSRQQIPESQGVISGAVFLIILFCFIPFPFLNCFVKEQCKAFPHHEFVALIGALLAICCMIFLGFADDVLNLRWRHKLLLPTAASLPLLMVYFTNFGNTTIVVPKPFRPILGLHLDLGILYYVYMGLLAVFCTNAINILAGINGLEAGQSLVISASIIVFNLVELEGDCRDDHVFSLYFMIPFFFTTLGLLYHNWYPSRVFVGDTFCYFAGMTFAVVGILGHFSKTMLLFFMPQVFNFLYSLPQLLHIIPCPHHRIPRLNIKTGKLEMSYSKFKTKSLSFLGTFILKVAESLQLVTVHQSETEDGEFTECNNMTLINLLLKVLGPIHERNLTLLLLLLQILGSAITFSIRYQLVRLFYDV
Protocol: as §1

[3] = biological target: T3, DPAGT1 Leu168Pro (Homo sapiens, UniProt Q9H3H5, L168P); test: as above; format: binding, H. sapiens; settings: 50 μM compound
T3 construct: combined with the LIC-adapted primers to amplify the complete DPAGT1 gene, including the desired mutations; 6xHis purification tag with TEV site (N, cleaved yes); made in house; host or cells: Spodoptera frugiperda Sf9 insect cells (baculovirus)
T3 sequence (Q9H3H5 1-408 L168P): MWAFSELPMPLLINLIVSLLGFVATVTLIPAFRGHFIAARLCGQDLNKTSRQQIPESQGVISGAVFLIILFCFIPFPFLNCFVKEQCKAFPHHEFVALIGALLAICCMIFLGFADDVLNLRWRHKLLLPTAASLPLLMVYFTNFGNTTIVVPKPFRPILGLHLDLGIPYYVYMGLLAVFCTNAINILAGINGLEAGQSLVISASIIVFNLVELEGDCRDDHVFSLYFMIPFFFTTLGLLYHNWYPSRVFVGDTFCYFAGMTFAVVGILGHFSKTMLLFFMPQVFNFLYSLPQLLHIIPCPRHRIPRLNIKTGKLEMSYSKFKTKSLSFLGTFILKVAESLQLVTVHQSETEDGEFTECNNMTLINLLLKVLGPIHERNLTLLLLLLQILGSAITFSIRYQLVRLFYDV
Protocol: as §1

[4] = biological target: T4, DPAGT1 Tyr170Cys (Homo sapiens, UniProt Q9H3H5, Y170C); test: as above; format: binding, H. sapiens; settings: 50 μM compound
T4 construct: combined with the LIC-adapted primers to amplify the complete DPAGT1 gene, including the desired mutations; 6xHis purification tag with TEV site (N, cleaved yes); made in house; host or cells: Spodoptera frugiperda Sf9 insect cells (baculovirus)
T4 sequence (Q9H3H5 1-408 Y170C): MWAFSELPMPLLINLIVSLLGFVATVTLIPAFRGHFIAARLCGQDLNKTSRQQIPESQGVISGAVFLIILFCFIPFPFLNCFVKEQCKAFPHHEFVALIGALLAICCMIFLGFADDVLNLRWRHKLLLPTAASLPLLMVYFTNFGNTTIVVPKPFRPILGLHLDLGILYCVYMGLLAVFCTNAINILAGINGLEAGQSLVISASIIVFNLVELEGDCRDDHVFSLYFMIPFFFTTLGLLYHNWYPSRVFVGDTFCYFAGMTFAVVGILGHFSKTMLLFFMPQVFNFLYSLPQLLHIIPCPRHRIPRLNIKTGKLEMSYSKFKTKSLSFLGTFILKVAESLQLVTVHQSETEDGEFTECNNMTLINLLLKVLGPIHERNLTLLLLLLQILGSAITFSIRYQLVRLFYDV
Protocol: as §1

[5] = biological target: T5, DPAGT1 Val264Gly (Homo sapiens, UniProt Q9H3H5, V264G); test: as above; format: binding, H. sapiens; settings: 50 μM compound
T5 construct: H. sapiens DPAGT1 (1-408, Val264Gly, N-terminal 6 x HIS tag, TEV cleavage site); 6xHis purification tag with TEV site (N, cleaved yes); made in house; host or cells: Spodoptera frugiperda Sf9 insect cells (baculovirus)
T5 sequence (Q9H3H5 1-408 V264G): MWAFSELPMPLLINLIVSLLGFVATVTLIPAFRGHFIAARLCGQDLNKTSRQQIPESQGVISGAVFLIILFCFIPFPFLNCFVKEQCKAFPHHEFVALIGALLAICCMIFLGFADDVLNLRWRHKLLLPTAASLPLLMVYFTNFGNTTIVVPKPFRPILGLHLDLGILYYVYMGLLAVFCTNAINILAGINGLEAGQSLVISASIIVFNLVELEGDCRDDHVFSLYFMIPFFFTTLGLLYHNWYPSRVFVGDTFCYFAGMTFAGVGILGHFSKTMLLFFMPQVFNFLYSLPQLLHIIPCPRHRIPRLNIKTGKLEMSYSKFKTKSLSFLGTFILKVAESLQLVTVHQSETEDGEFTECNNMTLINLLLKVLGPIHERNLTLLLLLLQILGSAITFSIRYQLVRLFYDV
Protocol: as §1

[6] = biological target: T6, DPAGT1 WT (Homo sapiens, UniProt Q9H3H5); test: as above; format: binding, H. sapiens; settings: 50 μM compound
T6 construct: H. sapiens DPAGT1 (1-408, N-terminal 6 x HIS tag, TEV cleavage site); 6xHis purification tag with TEV site (N, cleaved yes); made in house; host or cells: Spodoptera frugiperda Sf9 insect cells (baculovirus)
T6 sequence (Q9H3H5 1-408): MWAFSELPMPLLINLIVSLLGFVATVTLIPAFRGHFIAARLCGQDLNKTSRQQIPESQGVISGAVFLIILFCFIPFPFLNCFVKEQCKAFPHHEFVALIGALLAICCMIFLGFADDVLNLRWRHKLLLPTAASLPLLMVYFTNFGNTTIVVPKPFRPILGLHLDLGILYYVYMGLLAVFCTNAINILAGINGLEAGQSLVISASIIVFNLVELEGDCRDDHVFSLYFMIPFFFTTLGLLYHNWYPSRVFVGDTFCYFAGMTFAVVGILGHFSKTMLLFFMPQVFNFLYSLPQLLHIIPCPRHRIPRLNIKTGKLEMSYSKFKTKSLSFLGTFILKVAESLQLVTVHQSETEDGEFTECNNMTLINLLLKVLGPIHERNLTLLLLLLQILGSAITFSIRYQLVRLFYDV
Protocol: as §1

[7] = biological target: T7, DPAGT1 (Homo sapiens, UniProt Q9H3H5); test: Radiolabeled substrate enzyme activity assay; format: biochemical, H. sapiens; settings: product inhibition test
T7 construct: H. sapiens DPAGT1 (1-408, N-terminal 6 x HIS tag, TEV cleavage site); 6xHis purification tag with TEV site (N, cleaved yes); made in house; host or cells: Spodoptera frugiperda Sf9 insect cells (baculovirus)
T7 sequence (Q9H3H5 1-408): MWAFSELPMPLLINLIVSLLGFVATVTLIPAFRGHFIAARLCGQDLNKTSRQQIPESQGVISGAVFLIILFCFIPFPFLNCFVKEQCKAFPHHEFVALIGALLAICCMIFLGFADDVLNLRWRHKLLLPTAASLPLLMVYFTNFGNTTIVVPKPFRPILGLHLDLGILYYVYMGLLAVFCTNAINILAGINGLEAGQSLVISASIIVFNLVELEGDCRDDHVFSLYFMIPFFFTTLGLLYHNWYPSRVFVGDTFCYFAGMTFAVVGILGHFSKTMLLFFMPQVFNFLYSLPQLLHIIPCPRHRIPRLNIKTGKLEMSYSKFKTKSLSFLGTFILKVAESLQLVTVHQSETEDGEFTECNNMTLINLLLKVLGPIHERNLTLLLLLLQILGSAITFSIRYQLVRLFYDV
Protocol: 2 μl of 2 μM DPAGT1 WT or mutant proteins in GFB buffer supplemented with 5mM extra MgCl2, 1% OGNG/CHS/cardiolipin and dolichyl monophosphate was combined with 2 μl of UDP-N-acetyl [1-14C] […] The reaction was terminated by the addition of 6 μl of 100% methanol and immediately transferred onto ice. 1 μl of sample was spotted onto a silica coated TLC plate in triplicate and run with a mobile phase consisting of chloroform, methanol, and water at a 65:25:4 ratio respectively. After the run, the TLC plate was dried thoroughly, wrapped in cling film, incubated with a phosphor imaging substrate for 4 days, then phosphor imaged using a Biorad. The pixel density of the spots corresponding to the hydrophobic product was divided by combined pixel density of the product and the substrate and multiplied by the known concentration of substrate added to ascertain the amount of product formed.

| SMILES | Thermostability (Tm1/2) with added compound [1] [°C] | Thermostability (Tm1/2) with added compound [2] [°C] | Thermostability (Tm1/2) with added compound [3] [°C] | Thermostability (Tm1/2) with added compound [4] [°C] | Thermostability (Tm1/2) with added compound [5] [°C] | Thermostability (Tm1/2) with added compound [6] [°C] | effect of adding product on DPAGT1 activity [7] |
| --- | --- | --- | --- | --- | --- | --- | --- |
| CC(=O)NC1C(OP(=O)(O)OP(=O)(O)OCC2OC(n3ccc(=O)[nH]c3=O)C(O)C2O)OC(CO)C(O)C1O (stereo not shown) [UDP-GlcNAc, UDP-N-acetyl glucosamine] | 52.5±0.6 | 52.4±1.0 | 53.8±1.1 | 54.0±0.8 | 54.6±0.4 | 55.1±0.4 | – |
| O=c1ccn([C@@H]2O[C@H](COP(=O)(O)O)[C@@H](O)[C@H]2O)c(=O)[nH]1 [UMP] | 51.4±0.8 | 51.4±0.9 | 50.4±0.6 | 50.7±0.3 | 50.5±0.2 | 51.7±0.2 | no effect |
